The test deals with T1, Purified ERAP1(37-941)-10His (ERAP1) (Homo sapiens, UniProt Q9NZ08).
T1 construct: Purified ERAP1(37-941)-10His (ERAP1); 10His (C)
Description: ERAP1 mediated hydrolysis of an amide substrate measured in a biochemical system (10-mer decapeptide substrate). The note with it: 10-mer substrate, 23° C. for 1 h, excitation 279 nm and emission 355 nm; read-out: IC50 vs Decapeptide WRVYEKC(Dnp)ALK-acid (where Dnp is Dinitrophenyl maleimide) (10-mer). The method, boiled down: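 ERAP1(37-941)-10His preincubated with compound in 25 mM Bis-tris propane, 0.05% HPMC, pH 7.75, then reacted 1 h at 23 °C with 10-mer WRVYEKC(Dnp)ALK (100 μM solution added in equal volume). Fluorescence read at ex 279/em 355 nm; IC50 from 4-parameter fit.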

As a reminder, the IC50 is the concentration at which inhibition is half-maximal.

T1 sequence (Q9NZ08 37-941): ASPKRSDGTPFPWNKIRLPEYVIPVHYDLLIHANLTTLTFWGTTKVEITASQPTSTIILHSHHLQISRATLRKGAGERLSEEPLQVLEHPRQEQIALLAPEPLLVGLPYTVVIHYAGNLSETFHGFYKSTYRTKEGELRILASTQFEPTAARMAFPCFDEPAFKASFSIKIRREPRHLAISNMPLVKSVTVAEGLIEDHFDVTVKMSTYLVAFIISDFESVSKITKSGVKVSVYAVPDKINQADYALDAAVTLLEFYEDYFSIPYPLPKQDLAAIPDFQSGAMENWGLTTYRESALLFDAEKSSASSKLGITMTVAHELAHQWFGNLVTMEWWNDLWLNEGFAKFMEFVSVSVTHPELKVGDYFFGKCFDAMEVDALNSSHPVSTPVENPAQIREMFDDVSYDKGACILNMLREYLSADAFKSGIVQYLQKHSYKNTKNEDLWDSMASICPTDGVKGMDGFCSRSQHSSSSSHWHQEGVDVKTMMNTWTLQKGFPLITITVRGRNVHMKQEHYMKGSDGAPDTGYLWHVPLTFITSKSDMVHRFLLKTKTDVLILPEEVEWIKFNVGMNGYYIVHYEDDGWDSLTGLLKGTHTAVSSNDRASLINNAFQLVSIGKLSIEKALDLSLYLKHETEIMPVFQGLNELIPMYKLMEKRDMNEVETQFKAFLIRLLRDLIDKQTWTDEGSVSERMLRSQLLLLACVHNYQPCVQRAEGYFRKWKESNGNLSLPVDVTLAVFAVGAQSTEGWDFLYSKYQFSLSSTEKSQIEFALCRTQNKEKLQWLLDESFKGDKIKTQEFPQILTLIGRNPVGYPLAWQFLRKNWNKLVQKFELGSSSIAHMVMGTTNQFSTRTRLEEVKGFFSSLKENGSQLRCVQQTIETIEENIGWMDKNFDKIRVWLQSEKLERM

With `N#Cc1cc(NS(=O)(=O)c2cc(C(=O)O)ccc2C2CC2)c(-c2ccc(Cl)s2)cc1F` [Example 166, 3-(N-(2-(5-chlorothiophen-2-yl)-5-cyano-4-fluorophenyl)sulfamoyl)-4-cyclopropylbenzoic acid], the IC50 is < 500 nM.
`Cc1oncc1-c1ccc(-c2cccnc2)c(NS(=O)(=O)c2cc(C(=O)O)ccc2C2CC2)c1` [Example 167, 4-cyclopropyl-3-(N-(5-(5-methylisoxazol-4-yl)-2-(pyridin-3-yl)phenyl)sulfamoyl)benzoic acid]: the IC50 was < 500 nM.
Turning to `N#Cc1ccc(-c2ccccn2)c(NS(=O)(=O)c2cc(C(=O)O)ccc2C2CCC2)c1` [Example 168, 3-(N-(5-cyano-2-(pyridin-2-yl)phenyl)sulfamoyl)-4-cyclobutylbenzoic acid], the IC50 is < 500 nM.
In the case of `N#Cc1ccc(-c2ncccn2)c(NS(=O)(=O)c2cc(C(=O)O)ccc2C2CC2)c1` [Example 169, 3-(N-(5-cyano-2-(pyrimidin-2-yl)phenyl)sulfamoyl)-4-cyclopropylbenzoic acid], the IC50 is < 500 nM.
To `N#Cc1ccc(-c2ccsn2)c(NS(=O)(=O)c2cc(C(=O)O)ccc2C2CC2)c1` [Example 170, 3-(N-(5-cyano-2-(isothiazol-3-yl)phenyl)sulfamoyl)-4-cyclopropylbenzoic acid] belongs < 500 nM; to `CS(=O)(=O)c1cc(NS(=O)(=O)c2cc(C(=O)O)ccc2C2CC2)c(-c2ccccn2)cc1Cl` [Example 171, 3-(N-(4-chloro-5-(methylsulfonyl)-2-(pyridin-2-yl)phenyl)sulfamoyl)-4-cyclopropylbenzoic acid], < 500 nM; to `CS(=O)(=O)c1cc(NS(=O)(=O)c2cc(C(=O)O)ccc2C2CC2)c(-c2ccccn2)cc1F` [Example 172, 4-cyclopropyl-3-(N-(4-fluoro-5-(methylsulfonyl)-2-(pyridin-2-yl)phenyl)sulfamoyl)benzoic acid], < 500 nM.
Turning to `CC(C)(C)c1ccc(C(=O)O)cc1S(=O)(=O)Nc1cc(C#N)ccc1-c1ccccn1` [Example 173, 4-(tert-butyl)-3-(N-(5-cyano-2-(pyridin-2-yl)phenyl)sulfamoyl) benzoic acid], the IC50 is < 5000 nM.
To `N#Cc1ccc(-c2ccccn2)c(NS(=O)(=O)c2cc(C(=O)O)ccc2C#N)c1` [Example 175, 4-cyano-3-(N-(5-cyano-2-(pyridin-2-yl)phenyl)sulfamoyl)benzoic acid] belongs > 5000 nM.
To `Cc1cc(C#N)cc(NS(=O)(=O)c2cc(C(=O)O)ccc2C2CC2)c1-c1ccccn1` [Example 176, 3-(N-(5-cyano-3-methyl-2-(pyridin-2-yl)phenyl)sulfamoyl)-4-cyclopropylbenzoic acid] belongs < 500 nM.
To `Cc1cc(C#N)cc(NS(=O)(=O)c2cc(C(=O)O)ccc2C2CC2)c1-c1ccc(Cl)s1` [Example 177, 3-(N-(2-(5-chlorothiophen-2-yl)-5-cyano-3-methylphenyl)sulfamoyl)-4-cyclopropylbenzoic acid] belongs < 500 nM.
With `N#Cc1cc(NS(=O)(=O)c2cc(C(=O)O)ccc2C2CC2)c(-c2cscn2)cc1Cl` [Example 178, 3-(N-(4-chloro-5-cyano-2-(thiazol-4-yl)phenyl)sulfamoyl)-4-cyclopropylbenzoic acid], the IC50 is < 500 nM.
To `N#Cc1cc(NS(=O)(=O)c2cc(C(=O)O)ccc2C2CC2)c(-c2ncccn2)cc1Cl` [Example 179, 3-(N-(4-chloro-5-cyano-2-(pyrimidin-2-yl)phenyl)sulfamoyl)-4-cyclopropylbenzoic acid] belongs < 500 nM.
Regarding `N#Cc1cc(NS(=O)(=O)c2cc(C(=O)O)ccc2C2CC2)c(-c2ccsn2)cc1Cl` [Example 180, 3-(N-(4-chloro-5-cyano-2-(isothiazol-3-yl)phenyl)sulfamoyl)-4-cyclopropylbenzoic acid], the IC50 is < 500 nM.
On to `N#Cc1cc(NS(=O)(=O)c2cc(C(=O)O)ccc2C2CC2)c(-c2ccsn2)cc1F` [Example 181, 3-(N-(5-cyano-4-fluoro-2-(isothiazol-3-yl)phenyl)sulfamoyl)-4-cyclopropylbenzoic acid], for which the IC50 was < 500 nM.
To `N#Cc1cc(NS(=O)(=O)c2cc(C(=O)O)ccc2C2CC2)c(-c2ncccn2)cc1F` [Example 182, 3-(N-(5-cyano-4-fluoro-2-(pyrimidin-2-yl)phenyl)sulfamoyl)-4-cyclopropylbenzoic acid] belongs < 500 nM; to `N#Cc1cc(NS(=O)(=O)c2cc(C(=O)O)ccc2C2CC2)c(-c2nccs2)cc1F` [Example 183, 3-(N-(5-cyano-4-fluoro-2-(thiazol-2-yl)phenyl)sulfamoyl)-4-cyclopropylbenzoic acid], < 500 nM; to `O=C(O)c1ccc(C2CC2)c(S(=O)(=O)Nc2cc(-c3ccns3)c(F)cc2-c2ccccn2)c1` [Example 184, 4-cyclopropyl-3-(N-(4-fluoro-5-(isothiazol-5-yl)-2-(pyridin-2-yl)phenyl)sulfamoyl)benzoic acid], < 500 nM.
As for `Cn1nccc1-c1cc(NS(=O)(=O)c2cc(C(=O)O)ccc2C2CC2)c(-c2ccccn2)cc1F` [Example 185, 4-cyclopropyl-3-(N-(4-fluoro-5-(1-methylpyrazol-5-yl)-2-(pyridin-2-yl)phenyl)sulfamoyl)benzoic acid], the figure is < 500 nM; as for `Cn1ncnc1-c1cc(NS(=O)(=O)c2cc(C(=O)O)ccc2C2CC2)c(-c2ccccn2)cc1F` [Example 186, 4-cyclopropyl-3-(N-(4-fluoro-5-(1-methyl-1,2,4-triazol-5-yl)-2-(pyridin-2-yl)phenyl)sulfamoyl)benzoic acid], < 500 nM; as for `O=C(O)c1ccc(C2CC2)c(S(=O)(=O)Nc2cc(-n3cnnn3)c(Cl)cc2-c2ccccn2)c1` [Example 187, 3-(N-(4-chloro-2-(pyridin-2-yl)-5-(tetrazol-1-yl)phenyl)sulfamoyl)-4-cyclopropylbenzoic acid], < 500 nM.
`Cn1nccc1-c1cc(NS(=O)(=O)c2cc(C(=O)O)ccc2C2CC2)c(-c2ccccn2)cc1Cl` [Example 188, 3-(N-(4-chloro-5-(1-methylpyrazol-5-yl)-2-(pyridin-2-yl)phenyl)sulfamoyl)-4-cyclopropylbenzoic acid]: the IC50 is < 500 nM.
To `Cn1ncnc1-c1cc(NS(=O)(=O)c2cc(C(=O)O)ccc2C2CC2)c(-c2ccccn2)cc1Cl` [Example 189, 3-(N-(4-chloro-5-(1-methyl-1,2,4-triazol-5-yl)-2-(pyridin-2-yl)phenyl)sulfamoyl)-4-cyclopropylbenzoic acid] belongs < 500 nM.
As for `O=C(O)c1ccc(C2CC2)c(S(=O)(=O)Nc2cc(-n3cnnn3)c(F)cc2-c2ccccn2)c1` [Example 190, 4-cyclopropyl-3-(N-(4-fluoro-2-(pyridin-2-yl)-5-(tetrazol-1-yl)phenyl)sulfamoyl)benzoic acid], the figure is < 500 nM; as for `O=C(O)c1ccc(C2CC2)c(S(=O)(=O)Nc2cc(-c3ccns3)c(Cl)cc2-c2ccccn2)c1` [Example 191, 3-(N-(4-chloro-5-(isothiazol-5-yl)-2-(pyridin-2-yl)phenyl)sulfamoyl)-4-cyclopropylbenzoic acid], < 500 nM; as for `N#Cc1cc(NS(=O)(=O)c2cc(C(=O)O)ccc2C2CC2)c(-c2nccs2)cc1Cl` [Example 192, 3-(N-(4-chloro-5-cyano-2-(thiazol-2-yl)phenyl)sulfamoyl)-4-cyclopropylbenzoic acid], < 500 nM.
As for `Cc1oncc1-c1cc(NS(=O)(=O)c2cc(C(=O)O)ccc2C2CC2)c(-c2ccccn2)cc1Cl` [Example 193, 3-(N-(4-chloro-5-(5-methylisoxazol-4-yl)-2-(pyridin-2-yl)phenyl)sulfamoyl)-4-cyclopropylbenzoic acid], the figure is < 500 nM; as for `Cc1oncc1-c1ccc(-n2cccc2)c(NS(=O)(=O)c2cc(C(=O)O)ccc2C2CC2)c1` [Example 194, 4-cyclopropyl-3-(N-(5-(5-methylisoxazol-4-yl)-2-(pyrrol-1-yl)phenyl)sulfamoyl)benzoic acid], < 500 nM; as for `N#Cc1cc(NS(=O)(=O)c2cc(C(=O)O)ccc2C2CC2)c(-c2cscn2)cc1F` [Example 196, 3-(N-(5-cyano-4-fluoro-2-(thiazol-4-yl)phenyl)sulfamoyl)-4-cyclopropylbenzoic acid], < 500 nM.
On to `Cn1nccc1-c1ccc(-n2cccc2)c(NS(=O)(=O)c2cc(C(=O)O)ccc2C2CC2)c1` [Example 197, 4-cyclopropyl-3-(N-(5-(1-methylpyrazol-5-yl)-2-(pyrrol-1-yl)phenyl)sulfamoyl)benzoic acid], for which the IC50 is < 500 nM.
On to `O=C(O)c1ccc(C2CC2)c(S(=O)(=O)Nc2cc(-c3ccns3)c(F)cc2-n2cccc2)c1` [Example 198, 4-cyclopropyl-3-(N-(4-fluoro-5-(isothiazol-5-yl)-2-(pyrrol-1-yl)phenyl)sulfamoyl)benzoic acid], for which the IC50 is < 500 nM.
Turning to `Cn1nccc1-c1cc(NS(=O)(=O)c2cc(C(=O)O)ccc2C2CC2)c(-n2cccc2)cc1F` [Example 199, 4-cyclopropyl-3-(N-(4-fluoro-5-(1-methylpyrazol-5-yl)-2-(pyrrol-1-yl)phenyl)sulfamoyl)benzoic acid], the IC50 is < 500 nM.
Turning to `Cn1nccc1-c1cc(NS(=O)(=O)c2cc(C(=O)O)ccc2C2CC2)c(-n2cccc2)cc1Cl` [Example 200, 3-(N-(4-chloro-5-(1-methylpyrazol-5-yl)-2-(pyrrol-1-yl)phenyl)sulfamoyl)-4-cyclopropylbenzoic acid], the IC50 is < 500 nM.
As for `Cn1ncnc1-c1cc(NS(=O)(=O)c2cc(C(=O)O)ccc2C2CC2)c(-n2cccc2)cc1F` [Example 201, 4-cyclopropyl-3-(N-(4-fluoro-5-(1-methyl-1,2,4-triazol-5-yl)-2-(pyrrol-1-yl)phenyl)sulfamoyl)benzoic acid], the figure is < 500 nM.

For the origin of these results see patent US12023333B2, “Phenyl-sulfamoyl.benzoyc acids as ERAP1 modulators” (GREY WOLF THERAPEUTICS LIMITED, priority 2019, dated 2024).
